Experimental data as given in US10563204B2, “Methods of treating cancer harboring hemizygous loss of TP53” (priority 2015, dated 2020).
≈ marks a conversion by molar mass, not a printed value. Numbered stars: 1 amine (or outer) side, 2 acyl side, 3 side chain; on linkers, the order of the positions; unused ones are H or OH. Bridge positions count the residues as written; N and C are the ends. Square brackets hold non-standard residues; d marks the D form. Peptide text beside a SMILES is read from it. I, II: the chains in the order shown. Actinocin(9to1) = Cc1c2oc3c(C)ccc(C(=O)[*:1])c3nc-2c(C(=O)[*:2])c(N)c1=O; NMeV = CN[C@H](C(=O)O)C(C)C; Sar = CNCC(=O)O

Key:
[1] = tested on: POLR2A^loss cells (SW837, SNU283); assay: Cell proliferation and survival assay, POLR2A^loss colorectal cancer cells; type: cell-based, human
Protocol: (§1) Equal numbers of cells were plated in 12-well plates in triplicate. Cells were fixed with 10% methanol and stained with 0.1% crystal violet (dissolved in 10% methanol) at indicated times. After staining, wells were washed three times with PBS and destained with acetic acid. The absorbance of the crystal violet solution was measured at 590 nm. For cell survival assay, cells were seeded at a concentration of 1,000 cells per well in 96-well plates and treated with indicated concentrations of α-Amanitin or actinomycin D 24 hours later. Cell viability was quantified using WST-1 reagent (Roche) according to the manufacturer's instructions. All experiments were performed in triplicate.

POLR2A^loss HCT116 cells = assay: Cell proliferation and survival assay, isogenic HCT116 cells with hemizygous loss of POLR2A (CRISPR/Cas9); type: cell-based, human
Protocol: as §1
To exclude the effects of various genetic backgrounds across cell lines, the CRISPR (clustered regularly interspaced short palindromic repeat)/Cas9 system was employed to generate an isogenic HCT116 cell line with hemizygous loss of POLR2A (Wang et al., 2014; Wang et al., 2013). Two single-guide RNAs (sgRNAs) were designed to target the second exon of the POLR2A gene (FIG. 9A). Both of them efficiently targeted and disrupted the POLR2A gene, as shown in the Surveyor analysis (FIG. 9B). Single colonies of HCT116 cells bearing mono-allelic deletion of POLR2A were selected and verified by DNA sequencing (FIG. 9C). Small deletion in the targeted region led to open reading frame shift, producing only a short stretch of the N-terminal peptide without all functional domains of POLR2A. […] However, hemizygous deletion of POLR2A dramatically sensitized HCT116 cells to α-Amanitin treatment with an IC50 of ˜0.1 μg ml^−1, which is 8-fold lower than that of parental HCT116 cells (FIGS. 2G and 2H). […] POLR2A^loss and POLR2A^neutral HCT116 cells expressing Dox-inducible POLR2A shRNA were also generated. […] While a low-dose of Dox (100 ng ml^−1) was sufficient to remarkably kill the POLR2A^loss cells, high doses of Dox only had minimal effects on the POLR2A^neutral cells (FIGS. 2I, 2J, and 9H).

[2] = tested on: POLR2A^neutral cells (HCT116, SW480); assay: Cell proliferation and survival assay, POLR2A^neutral colorectal cancer cells; type: cell-based, human
Protocol: as §1

xhCRC and HCT116 cells = assay: Sensitivity of isogenic xhCRC and HCT116 cells (TP53 / POLR2A hemizygous deletion) to α-Amanitin; type: cell-based, human
Protocol: as §1
(§2) Blockage of RNA polymerase may lead to p53 accumulation and activation (Derheimer et al., 2007). To examine the effects of p53 on cell response to POLR2A inhibition, the concomitant deletion of TP53 and POLR2A was recapitulated in HCT116 and xhCRC cell lines (FIGS. 3A and 10A-10C). […] The RNA polymerase II is in charge of mRNA synthesis, an essential function for any type of cells including therapy-resistant tumor cells. The drug sensitivity of POLR2A^neutral and POLR2A^loss cells to three major chemotherapy drugs for colorectal cancer (5-fluorouracil (5-FU), oxaliplatin, and SN-38) was examined. […]

POLR2A^loss xhCRC cells = type: cell-based, human; conditions: α-Amanitin combined with each of the three drugs
Protocol: as §1, §2

[3] = tested on: POLR2A^neutral xhCRC cells; type: cell-based, human; conditions: α-Amanitin combined with each of the three drugs
Protocol: as §1, §2

OATP1B3 = OATP1B3 (Homo sapiens, UniProt Q9NPD5); conditions: free α-Amanitin; transporter on hepatocyte membrane; cited from earlier work
Chain of OATP1B3 (Q9NPD5 whole entry): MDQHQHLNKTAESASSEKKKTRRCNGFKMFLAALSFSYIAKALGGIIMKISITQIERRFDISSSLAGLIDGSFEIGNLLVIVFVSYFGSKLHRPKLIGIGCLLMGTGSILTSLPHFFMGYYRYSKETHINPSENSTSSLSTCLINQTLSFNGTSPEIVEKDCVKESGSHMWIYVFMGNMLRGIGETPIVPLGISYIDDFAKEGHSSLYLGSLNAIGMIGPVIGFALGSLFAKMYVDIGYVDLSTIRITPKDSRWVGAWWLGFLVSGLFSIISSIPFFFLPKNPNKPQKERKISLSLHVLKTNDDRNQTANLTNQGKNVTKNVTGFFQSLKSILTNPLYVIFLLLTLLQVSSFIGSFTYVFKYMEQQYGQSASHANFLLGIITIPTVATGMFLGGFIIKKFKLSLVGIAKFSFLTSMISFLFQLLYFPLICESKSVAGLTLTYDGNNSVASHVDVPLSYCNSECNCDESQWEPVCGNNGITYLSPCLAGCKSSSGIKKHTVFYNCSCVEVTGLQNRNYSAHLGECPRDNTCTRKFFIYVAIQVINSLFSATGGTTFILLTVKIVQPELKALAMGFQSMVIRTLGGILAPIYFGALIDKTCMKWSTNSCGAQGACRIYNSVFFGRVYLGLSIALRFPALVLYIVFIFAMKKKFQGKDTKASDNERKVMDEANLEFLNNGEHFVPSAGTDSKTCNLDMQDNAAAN

[4] = free α-Amanitin; cited from earlier work

Cc1c2oc3c(C)ccc(C(=O)N[C@@H]4C(=O)N[C@H](C(C)C)C(=O)N5CCC[C@H]5C(=O)N(C)CC(=O)N(C)[C@@H](C(C)C)C(=O)O[C@@H]4C)c3nc-2c(C(=O)N[C@@H]2C(=O)N[C@H](C(C)C)C(=O)N3CCC[C@H]3C(=O)N(C)CC(=O)N(C)[C@@H](C(C)C)C(=O)O[C@@H]2C)c(N)c1=O [actinomycin D] (I: T[dV]P[Sar][NMeV] / II: T[dV]P[Sar][NMeV]; ester I:1-I:C, II:1-II:C; linker I:N-II:N via Actinocin(9to1))
sensitivity compared with POLR2A^neutral cells ([1]; actinomycin D treatment): did not show any greater sensitivity
difference in sensitivity between POLR2A^loss and POLR2A^neutral HCT116 cells (POLR2A^loss HCT116 cells; actinomycin D): no substantial difference

CC[C@H](C)[C@@H]1NC(=O)CNC(=O)[C@@H]2Cc3c([nH]c4cc(O)ccc34)[S+]([O-])C[C@@H](NC(=O)CNC1=O)C(=O)N[C@@H](CC(N)=O)C(=O)N1C[C@H](O)C[C@H]1C(=O)N[C@@H]([C@@H](C)[C@@H](O)CO)C(=O)N2 (stereo in doubt) [α-Amanitin]
half-maximum inhibitory concentration (IC50) ([2]; POLR2A^neutral cells (HCT116, SW480)): ~1.0 µg/mL
cell growth / cell death at high concentrations ([2]; ≥1 μg ml^−1, HCT116, SW480): complete cell death
resistance to α-Amanitin after re-expression of exogenous POLR2A ([1]; SNU283 and SW837 re-expressing exogenous POLR2A, level comparable to HCT116 and SW480): restored their resistance
cell-killing effect compared with POLR2A^neutral cells ([1]; concentrations from 0 to 1.0 μg ml^−1): significantly higher levels of cell-killing effect
IC50 of POLR2A^neutral cells relative to that of POLR2A^loss cells ([1]; neutral (HCT116, SW480) vs loss (SW837, SNU283)): 10 fold
cell growth / cell death at high concentrations ([1]; ≥1 μg ml^−1, SW837, SNU283): complete cell death
IC50 (POLR2A^loss HCT116 cells; HCT116 with hemizygous deletion of POLR2A): ~0.1 µg/mL (≈ 0.109 µM)
IC50 lower than that of parental HCT116 cells (POLR2A^loss HCT116 cells; POLR2A^loss vs parental HCT116): 8 fold
change in sensitivity to α-Amanitin (xhCRC and HCT116 cells; cells with hemizygous deletion of TP53): no significant changes
change in sensitivity to α-Amanitin (xhCRC and HCT116 cells; cells with hemizygous loss of POLR2A, regardless of TP53 status): markedly sensitized
effect on cell killing by 5-FU, oxaliplatin and SN-38 (POLR2A^loss xhCRC cells): significantly enhanced cell-killing effects
effect on cell killing by 5-FU, oxaliplatin and SN-38 [3]: no notable effects
binding by OATP1B3 (OATP1B3): specifically bound
liver toxicity [4]: toxic to liver
